Assay results from PubChem BioAssay (NCI).
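Where inhibition never reached the appropriate level, the endpoint shown equals the highest concentration tested. Otherwise, values were interpolated linearly from a five-concentration, 48-hour dose response in 96-well plates. Here, GI50 denotes the concentration required for 50% inhibition of growth. TGI marks complete inhibition of growth.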

How the values were obtained:
Assay in all cases: NCI anticancer screen, dose series, 48 h
M19-MEL melanoma = system: M19-MEL melanoma
SNB-78 CNS = system: SNB-78 CNS
XF 498 CNS = system: XF 498 CNS
RXF-631 renal = system: RXF-631 renal

Row | Structure (SMILES) | TGI (M19-MEL melanoma) | TGI (SNB-78 CNS) | GI50 (M19-MEL melanoma) | TGI (XF 498 CNS) | TGI (RXF-631 renal)
1 | COc1ccc2c3ccc4c(c3n(C)c2c1)C(=O)c1ccccc1C4=O | > 100 µM | > 100 µM | – | – | –
2 | [N-]=[N+]=NC1C(Br)C(=O)NC(=O)N1[C@H]1C[C@H](O)[C@@H](CO)O1 (some centres not stated) | > 100 µM | > 100 µM | 91.5 µM | > 100 µM | –
3 | CCC1(N=[N+]=[N-])C(=O)Nc2cc(C)ccc2C1=O (configuration not stated) | > 100 µM | > 100 µM | – | – | –
4 | O=C(c1ccncc1)n1nc(-c2ccccc2)c(N=Nc2ccc([N+](=O)[O-])cc2)c1-c1ccccc1 | > 100 µM | 28 µM | – | > 100 µM | –
5 | COC(=O)CC1C(=O)OCc2c1cc1n(c2=O)Cc2c-1nc1ccccc1c2OC (configuration not stated) | > 100 µM | – | – | > 100 µM | –
6 | COC[n+]1cc2cc(OC)c(OC)cc2c2ccc3cc(OC)c(OC)cc3c21 | > 100 µM | > 100 µM | – | – | > 100 µM
7 | COC(=O)c1c(C(=O)OC)c2cc(C(=O)c3ccccc3)ccn2c1Cl | > 100 µM | > 100 µM | – | 66.6 µM | –
8 | CC1=NN(C(=O)Cc2ccccc2)C(=O)/C1=C\C=C\c1ccccc1 | – | > 100 µM | – | > 100 µM | –
9 | COc1ccc(C2C(Cl)C(=O)N2NC(=O)Cc2ccccc2)cc1 (configuration not stated) | > 100 µM | > 100 µM | – | > 100 µM | –
10 | CCN(CC)Cc1cc(Nc2c3ccccc3nc3c2[nH]c2ccccc23)ccc1O | 3.04 µM | 4.87 µM | – | 3.18 µM | 4.37 µM
11 | CCOC(=O)CC[C@@H](NC(=O)c1ccc(N[C@@H]2c3cc4c(cc3C(c3cc(OC)c(O)c(OC)c3)C3C(=O)OC[C@@H]32)OCO4)cc1)C(=O)OCC (some centres not stated) | – | > 10 µM | – | – | –
12 | COc1cc2[nH]c(-c3cccc(N(C)C)c3)cc(=O)c2cc1OC | > 100 µM | > 100 µM | – | > 100 µM | –
13 | N#CC12C3C4CC5C6C4C1C6C(O)(C53)N2Cc1ccccc1 (configuration not stated) | – | – | – | > 100 µM | > 100 µM
14 | Cc1cc2c(s1)C(=O)c1sccc1C2=O | – | – | – | 2.92 µM | –
15 | COC(=O)N/N=C/c1oc(-c2cccc([N+](=O)[O-])c2)c(-c2cccc([N+](=O)[O-])c2)c1[N+](=O)[O-] | > 100 µM | – | – | > 100 µM | –
